Experimental data from patent publication US20090253794A1, “Fibroblast Activator, Collagen Production Promoter, Collagen Contraction Promoter, Hyaluronic Acid Production Promoter, ATP Production Promoter, Melanin Formation Inhibitor, and Agent for External Application to the Skin” (priority 2005, published 2009).
Marks after values point to notes of the source that are not given here.

Assays:
Assay type in all cases: cell-based
[1] = tested on: normal human skin fibroblasts; assay: type I collagen production promoting effect (PIP in culture supernatant) and cell count; conditions: for produced amount of collagen: 24 hr, relative value, negative control = 100, n=3 average; for number of cells: cells per well, counted visually after trypsin, negative control 4.9 × 10^5
Experimental: Normal human skin fibroblasts (manufactured by KURABO INDUSTRIES LTD.) were added to a 24 well plate at 5×10^4 cells per well. Using Medium 106S medium (manufactured by KURABO INDUSTRIES LTD.) containing 2% FBS, the cells were cultured under an atmosphere of 95% (V/V) air-5% (V/V) carbon dioxide gas at 37° C. for 24 hr. The medium was changed to Medium 106S medium (free of FBS) containing each sample, and the cells were cultured under the same conditions for 24 hr. After the completion of culture, the culture supernatant was taken to evaluate the type I collagen biosynthesizability and, to count the cells, the cells were harvested by a trypsin treatment. The samples used were two kinds of conagenin contents of 0.1 μM, 1 μm, 10 μM, 100 μM, 1 mM (final concentration), and magnesium L-ascorbyl phosphate (manufactured by Wako Pure Chemical Industries, Ltd., final concentration 100 μM) as a positive control (one added with PBS instead of the sample was used as a negative control).

normal human fibroblasts = assay: hyaluronic acid production promoting effect and cell count; conditions: 72 hr; for number of cells: negative control 5.4 × 10^5; for amount of hyaluronic acid produced: negative control = 100, n=3 average
Experimental: The number of cells of normal human fibroblasts was adjusted to 5.0×10^4 cells/mL in Medium 106S medium containing 2% FBS, and plated on a 24 well plate by 1.0 mL. The cell was cultured under an atmosphere of 95% (V/V) air-5% (V/V) carbon dioxide gas at 37° C. for 24 hr, and then Medium 106S medium (free of FBS) containing various concentrations of conagenin was added. After further culture for 72 hr, the culture supernatant was collected, and the concentration of hyaluronic acid released into the medium was measured by an inhibitory method (hyaluronic acid measurement kit, manufactured by SEIKAGAKU CORPORATION) utilizing a hyaluronic acid-binding protein. The method of operation was as indicated in the attached explanation insert. The results obtained using PBS as a negative control instead of conagenin was taken as 100 and the amount ratio of hyaluronic acid in the medium was calculated.

[2] = tested on: normal human skin fibroblasts; assay: ATP production promotion (ATP Lite luminescence); conditions: for ATP amount (average ATP amount without addition of sample is 100): 48 hr, n = 4, mean ± standard deviation
Experimental: The evaluation was performed according to the following procedure. Normal human skin fibroblasts (manufactured by KURABO INDUSTRIES LTD.) were plated on a 96 well microplate at 2.0×10^4 cells per well. As the medium for plating, commercially available Medium 106S (manufactured by KURABO INDUSTRIES LTD.) containing 2% FBS, heparin 10 μg/ml and hydrocortisone 1 μg/ml was used. After culture for 24 hr, the medium was changed to a medium supplemented with various concentrations of conagenin, and the cells were cultured for 48 hr.
Then, the medium was removed from the 96 well microplate, and the amount of ATP synthesized in the cell was measured using a ATP measurement kit (ATP Lite, manufactured by PerkinElmer, Inc.). That is, the cells were washed with PBS(−), the cell membrane was lysed with a Lysis solution, a luminescence substrate was added, and the mixture was transferred to a black 96 well microplate (View Plate). The chemical luminescence was measured with a luminometer. The effect of the sample was evaluated using, as an index, the average ATP amount without addition of the sample as 100. For statistical processing, parametric multiple comparison (Dunnett Type) relative to control group without addition of the sample was performed, wherein a risk rate of less than 5% is indicated with *, a risk rate of less than 1% is indicated with ** and a risk rate of less than 0.1% is indicated with ***.

[3] = tested on: mouse B16 melanoma strain; assay: melanin formation amount after L-DOPA incubation (absorbance 495 nm), cells of Example 7; conditions: FIG. 1; cells of Example 7 (0.1, 1.0, 10 mM); absorbance at 495 nm
Experimental: To the cells recovered in Example 7 was added 100 μl of cell suspension (PBS buffer containing Triton X-100 at 0.1% (v/v)). After thorough suspending, the suspension was stood at 4° C. for 1 hr. Thereto was added 100 μl of 10 mM L-DOPA (manufactured by Nacalai Tesque), and the mixture was incubated at 37° C. for 1 hr. Thereafter, the absorbance at 495 nm was measured by a plate reader (multiscanplus MKII, manufactured by Japan Flow Laboratory), and the melanin formation amount was measured.

C[C@@H]([C@@H](C)O)[C@@H](O)C(=O)N[C@@](C)(CO)C(=O)O [conagenin, (2S)—N-[(2R,3S,4R)2,4-dihydroxy-3-methyl-pentanoyl]-2-methylserine]
produced amount of collagen ([1]; 0.1 μM): 196 | number of cells ([1]; 0.1 μM): 5.1 × 10^5 | produced amount of collagen ([1]; 1 μM): 197 | number of cells ([1]; 1 μM): 5.1 × 10^5 | produced amount of collagen ([1]; 10 μM): 204 | number of cells ([1]; 10 μM): 5.2 × 10^5 | produced amount of collagen ([1]; 100 μM): 208 | number of cells ([1]; 100 μM): 4.8 × 10^5 | produced amount of collagen ([1]; 1 mM): 202 | number of cells ([1]; 1 mM): 4.7 × 10^5 | number of cells (normal human fibroblasts; 1 μM): 5.3 × 10^5 | amount of hyaluronic acid produced (normal human fibroblasts; 1 μM): 108 | number of cells (normal human fibroblasts; 10 μM): 5.5 × 10^5 | amount of hyaluronic acid produced (normal human fibroblasts; 10 μM): 120 | number of cells (normal human fibroblasts; 100 μM): 5.3 × 10^5 | amount of hyaluronic acid produced (normal human fibroblasts; 100 μM): 132 | number of cells (normal human fibroblasts; 1 mM): 5.1 × 10^5 | amount of hyaluronic acid produced (normal human fibroblasts; 1 mM): 147 | number of cells (normal human fibroblasts; 5 mM): 4.0 × 10^5 | amount of hyaluronic acid produced (normal human fibroblasts; 5 mM): 199 | ATP amount (average ATP amount without addition of sample is 100) ([2]; 0.20 μM): 120 ± 18 | ATP amount (average ATP amount without addition of sample is 100) ([2]; 0.39 μM): 146 ± 30*** | ATP amount (average ATP amount without addition of sample is 100) ([2]; 0.78 μM): 128 ± 8* | ATP amount (average ATP amount without addition of sample is 100) ([2]; 1.56 μM): 133 ± 8** | ATP amount (average ATP amount without addition of sample is 100) ([2]; 3.13 μM): 150 ± 20*** | ATP amount (average ATP amount without addition of sample is 100) ([2]; 6.25 μM): 155 ± 26*** | ATP amount (average ATP amount without addition of sample is 100) ([2]; 12.5 μM): 160 ± 7*** | ATP amount (average ATP amount without addition of sample is 100) ([2]; 25 μM): 153 ± 4*** | ATP amount (average ATP amount without addition of sample is 100) ([2]; 50 μM): 168 ± 13*** | ATP amount (average ATP amount without addition of sample is 100) ([2]; 100 μM): 164 ± 16*** | concentration at which a statistically significant ATP production promoting action was observed ([2]; Dunnett comparison with the group without addition): not less than 0.39 μM | melanin formation amount [3]: suppresses melanin formation at a low concentration
